{"source": "patent US4657865A", "about": "“Pullulanase-like enzyme, method for preparation thereof, and method for saccharification of starch therewith” (Agency of Industrial Science & Technology, priority 1985, dated 1987)", "key": {"[1]": {"test_system": "pullulanase-like enzyme", "test": "Inhibition of the pullulanase activity by metal salts", "format": "biochemical, Bacillus subtilis", "settings": "inhibitor concentration 1×10^-3 M", "procedure": "(6) Inhibitor: This enzyme undergoes not less than 90% of inhibition by each of HgCl2 and AgNO3 used in a concentration of 1×10^-3 M and about 70% of inhibition by ZnSO4 used in the same concentration.\n(10) Procedure for determination of activity: This enzyme is added in a suitable amount to 0.5 ml of a 1% pullulan solution (pH 7.0) obtained by dissolving pullulan in 0.1M phosphate buffer. The mixture is made up to a total volume of 1 ml with water and incubated at 40° C. The amount of this enzyme which is required in producing reducing power equivalent to 1μ mole of glucose after one minute standing under the aforementioned conditions is defined as one unit."}, "[2]": {"test_system": "Bacillus subtilis TU strain", "test": "Growth on culture medium containing Tunicamycin, TU strain", "format": "cell-based", "settings": "culture medium containing Tunicamycin 25-100 μg/ml", "excerpt": "(§1) The aforementioned pullulanase-like enzyme is produced by a bacterium isolated from soil and identified to be Bacillus subtilis (FERM BP-672). […] It has been designated as Bacillus subtilis TU strain, deposited with Fermentation Research Institute, Agency of Industrial Science & Technology on Oct. 13, 1984 under FERM 7893, and also transferred to the International Deposition based on the Budapest Treaty on Dec. 20, 1984 and designated FERM BP-684.\n(§2) A strain of Bacillus subtilis (FERM BP-672) was suspended in distilled water and irradiated with the ultraviolet light (15 W) from its source at a distance of about 30 cm for 5 minutes. Part of the irradiated suspension was placed in a culture medium containing 75 μg of Tunicamycin per ml (containing 1% of polypepton, 1% of soluble starch, 0.3% of K2 HPO4, and 0.1% of MgSO4.7H2 O) and aerobically cultured therein at 30° C. for three days. The grown microorganism was sprayed on a plate culture medium with the same culture medium containing agar and incubated at 30° C. The colonies which grew were preserved on a slant medium of the same composition. In the Tunicamycin-resistant mutants so produced, there was obtained in high frequency a strain of enhanced activity to produce the pullulanase-like enzyme. Bacillus subtilis TU strain (FERM BP-684) was thus obtained."}, "[3]": {"test_system": "Bacillus subtilis (FERM BP-672) parent strain", "test": "Growth on culture medium containing Tunicamycin, parent strain", "format": "cell-based", "settings": "culture medium containing Tunicamycin 25-100 μg/ml", "excerpt": "as §1, §2"}}}
{"compound": "O=[N+]([O-])[O-].[Ag+]", "note": "[AgNO3]", "values": [{"measurement": "inhibition", "setting": "[1]", "value": "not less than 90%"}]}
{"compound": "[Cl][Hg][Cl]", "note": "[HgCl2]", "values": [{"measurement": "inhibition", "setting": "[1]", "value": "not less than 90%"}]}
{"compound": "O=S(=O)([O-])[O-].[Zn+2]", "note": "[ZnSO4]", "values": [{"measurement": "inhibition", "setting": "[1]", "value": "about 70%"}]}
{"compound": "Tunicamycin", "values": [{"measurement": "growth of the TU strain", "setting": "[2]", "value": "grows fairly well"}, {"measurement": "growth of the parent strain", "setting": "[3]", "value": "fails to show any growth"}]}
